Laboratory results published in patent publication EP1010435A1, “NANOCAPSULE PREPARATIONS FOR TREATING INTRAARTICULAR DISEASES” (Maruho K.K., priority 1997, dated 1999).

Test system: rabbit models in which adjuvant arthritis was induced with ovalbumin (FCA)
Test: Rabbit adjuvant arthritis model, intra-articular administration simultaneously with boosting
Assay type: in vivo, rabbits
Procedure: Produced were rabbit models in which adjuvant arthritis was induced with ovalbumin (FCA) according to the method of E.R.Pettipher et al. (Br.J.Exp.Path., 69, 113-122, (1988)). Three weeks after sensitization, the models were boosted again with ovalbumin at knees. Simultaneously with boosting, the sample of the present invention was administered in articular cavities.
An aqueous solution of betamethasone sodium phosphate so prepared that the amount of the medicament (BSP) was the same, 3mg, and physiological saline alone were administered in articular cavities as a control and as a blank test, respectively, simultaneously with boosting.
The outside diameter of the knees of rabbits were measured with a caliper 1 day, 3 days, 7 days, 14 days, 21 days, 28 days, 35 days and 42 days after administration. Skin temperature at the knees was measured with a contact-type surface thermometer.
The outside diameter of the knees and temperature measured with time are shown as values obtained by subtracting reference values from the measured values. The reference values are those before the boosting at the knees.
Further, blood was collected from rabbits 2 weeks, 4 weeks and 6 weeks after boosting, and the production of antibodies for ovalbumin was mesured by the ELISA method (according to the same reference by E.R.Pettipher). In addition, 6 weeks after boosting, the knee joints of rabbits are opened, and the inside of the articular cavities and surrounding tissue were morphologically observed.

## C[C@H]1C[C@H]2[C@@H]3CCC4=CC(=O)C=C[C@]4(C)[C@@]3(F)[C@@H](O)C[C@]2(C)[C@@]1(O)C(=O)COP(=O)(O)O [betamethasone sodium phosphate]
1 to 42 days after administration, 3 mg BSP intra-articular
  temperature of knees (surface skin temperature, increase): fever due to inflammation was suppressed
After day 1 up to 5 weeks and later, 3 mg BSP intra-articular
  swell of knees (outside diameter, increase over value before boosting), later course: almost the same swell as in the case of physiological saline
One day after intra-articular administration, 3 mg BSP
  swell of knees (outside diameter, increase over value before boosting): suppressed
